One series addresses Carbonic anhydrase. The class given is protein assay.
For series [1], the species on record is Oryctolagus cuniculus. Description: Effect on intraocular pressure in right eye was tested by using transition ocular hypertension model at basal condition. The class given is functional.
For series [2], the species on record is Oryctolagus cuniculus. Briefly: Effect on intraocular pressure in right eye was tested by using transition ocular hypertension model at 0 min. The class given is functional.
The species named for series [3] is Oryctolagus cuniculus. Description: Effect on intraocular pressure in right eye was tested by using transition ocular hypertension model at 10 min. Type of series: functional.
For series [4], the species on record is Oryctolagus cuniculus. Briefly: Effect on intraocular pressure in right eye was tested by using transition ocular hypertension model at 20 min. The class given is functional.
Series [5] is filed under the species Oryctolagus cuniculus. Description: Effect on intraocular pressure in right eye was tested by using transition ocular hypertension model at 40 min. The class given is functional.
The species named for series [6] is Oryctolagus cuniculus. Description: Effect on intraocular pressure in left eye was tested by using transition ocular hypertension model at 20 min. Type of series: functional.
The species entered for series [7] is Oryctolagus cuniculus. Briefly: Effect on intraocular pressure in left eye was tested by using transition ocular hypertension model at 40 min. Type of series: functional.
The species entered for series [8] is Oryctolagus cuniculus. Description: Effect on intraocular pressure in left eye was tested by using transition ocular hypertension model at basal condition. Type of series: functional.
For series [9], the species on record is Oryctolagus cuniculus. Briefly: Effect on intraocular pressure in left eye was tested by using transition ocular hypertension model at 0 min. Type of series: functional.
The species entered for series [10] is Oryctolagus cuniculus. Description: Effect on intraocular pressure in left eye was tested by using transition ocular hypertension model at 10 min. Type of series: functional.
A further series is described as follows: physchem. The conditions noted are these: phosphate buffer.
The conditions of series [11]: buffer.
Description: Solubility (in phosphate buffer)

The record followed here is ChEMBL document CHEMBL1125487, “Acetazolamide-like carbonic anhydrase inhibitors with topical ocular hypotensive activity” (J Med Chem, 1992).

Values after ≈ are worked out from the molar mass of the structure shown. Values joined by “and” are separate entries in the source; they are usually repeats but may differ in a detail not shown here. Equal values may be shown once. A value given as a limit tells only on which side of the number the result lay.

One may read the IC50 as the concentration that inhibits the measured activity by half. Lower therefore signals greater potency. Usually solubility stands for the concentration that dissolves in the medium under given conditions.

Description for Carbonic anhydrase: Inhibition of Carbonic anhydrase enzyme in rabbits
Description for physchem: Solubility (in phosphate buffer)

At Carbonic anhydrase, `CCCCCCCCCCCCOC(=O)CCC(=O)Nc1nnc(S(N)(=O)=O)s1` registered an IC50 of 520 nM. In other words, the sub-micromolar range.
Turning to `CC(C)(C)NC[C@H](O)COc1nsnc1N1CCOCC1` [TIMOLOL], the IOP in the series listed under Oryctolagus cuniculus [1] is listed as 18.53 mmHg; in the series listed under Oryctolagus cuniculus [2], 15.77 mmHg; in the series listed under Oryctolagus cuniculus [3], 18.57 mmHg; in the series filed under Oryctolagus cuniculus [4] it was 19.38 mmHg; in the series listed under Oryctolagus cuniculus [5], 18.77 mmHg; in the series filed under Oryctolagus cuniculus [6], 21.97 mmHg. The IOP in the series filed under Oryctolagus cuniculus [7] came to 18.77 mmHg; in the series filed under Oryctolagus cuniculus [8] it was 18.53 mmHg; in the series filed under Oryctolagus cuniculus [9] it was 16.84 mmHg; in the series filed under Oryctolagus cuniculus [10] it was 25.84 mmHg.
As for `CCC(C)OC(=O)CCC(=O)Nc1nnc(S(N)(=O)=O)s1` (stereo unspecified), the IC50 on Carbonic anhydrase is 370 nM. For the same compound, the IOP in the series filed under Oryctolagus cuniculus [1] was 15.67 mmHg; in the series filed under Oryctolagus cuniculus [2], 14.67 mmHg; in the series listed under Oryctolagus cuniculus [3] it was 21.5 mmHg; in the series filed under Oryctolagus cuniculus [4], 19 mmHg; in the series filed under Oryctolagus cuniculus [5], 16.67 mmHg; in the series filed under Oryctolagus cuniculus [6], 21.17 mmHg. In addition, the IOP turned out to be 17.17 mmHg in the series filed under Oryctolagus cuniculus [7], 15.33 mmHg in the series filed under Oryctolagus cuniculus [8], 15.5 mmHg in the series filed under Oryctolagus cuniculus [9] and 25.67 mmHg in the series listed under Oryctolagus cuniculus [10]. In “physchem”, this compound registered a solubility of 3.7 mM (≈ 1240 µg/mL).
In the case of `CCOC(=O)CCC(=O)Nc1nnc(S(N)(=O)=O)s1`, the IOP in the series filed under Oryctolagus cuniculus [1] is listed as 15.33 mmHg; in the series filed under Oryctolagus cuniculus [2], 13.33 mmHg; in the series filed under Oryctolagus cuniculus [3] it was 20.33 mmHg; in the series filed under Oryctolagus cuniculus [4], 17.33 mmHg; in the series filed under Oryctolagus cuniculus [5], 15.67 mmHg; in the series filed under Oryctolagus cuniculus [6], 20.67 mmHg. In addition, the IOP is 17.67 mmHg in the series filed under Oryctolagus cuniculus [7], 15.33 mmHg in the series filed under Oryctolagus cuniculus [8], 15.5 mmHg in the series filed under Oryctolagus cuniculus [9] and 25.67 mmHg in the series listed under Oryctolagus cuniculus [10]. Further, in the series “physchem”, the solubility was determined as 8.9 mM (≈ 2740 µg/mL).
Turning to `NS(=O)(=O)c1nnc(NC(=O)CCCC(=O)O)s1`, the IC50 at Carbonic anhydrase came out at 520 nM. The IOP is given as 15.5 mmHg in the series listed under Oryctolagus cuniculus [1]; 14.67 mmHg in the series listed under Oryctolagus cuniculus [2]; 21.17 mmHg in the series listed under Oryctolagus cuniculus [3]; 19 mmHg in the series filed under Oryctolagus cuniculus [4]; 16.5 mmHg in the series filed under Oryctolagus cuniculus [5]; 22 mmHg in the series filed under Oryctolagus cuniculus [6]. Moreover, the IOP is recorded as 17.83 mmHg in the series listed under Oryctolagus cuniculus [7], 15.5 mmHg in the series listed under Oryctolagus cuniculus [8], 15.33 mmHg in the series listed under Oryctolagus cuniculus [9] and 25.5 mmHg in the series listed under Oryctolagus cuniculus [10]. This compound also showed a solubility in “physchem” of 31 mM (≈ 9120 µg/mL).
In the case of `COC(=O)CCC(=O)/N=c1/sc(S(N)(=O)=O)nn1C`, the IC50 against Carbonic anhydrase turned out to be 450 nM. Further, the IOP in the series listed under Oryctolagus cuniculus [1] amounted to 15.5 mmHg; in the series listed under Oryctolagus cuniculus [2] it was 14.83 mmHg; in the series filed under Oryctolagus cuniculus [3], 24.67 mmHg; in the series filed under Oryctolagus cuniculus [4], 20.83 mmHg; in the series filed under Oryctolagus cuniculus [5] it was 17.33 mmHg; in the series listed under Oryctolagus cuniculus [6] it was 21.5 mmHg. Further, the IOP in the series listed under Oryctolagus cuniculus [7] is listed as 17.83 mmHg; in the series filed under Oryctolagus cuniculus [8], 15.33 mmHg; in the series filed under Oryctolagus cuniculus [9] it was 16 mmHg; in the series filed under Oryctolagus cuniculus [10] it was 25.83 mmHg. The compound also displayed a solubility in “physchem” of 7.3 mM (≈ 2250 µg/mL).
`COC(=O)CCC(=O)Nc1nnc(S(N)(=O)=O)s1`: on Carbonic anhydrase, the IC50 came out at 550 nM. Further, the IOP was determined as 15.67 mmHg in the series filed under Oryctolagus cuniculus [1]; 15.17 mmHg in the series listed under Oryctolagus cuniculus [2]; 25.33 mmHg in the series filed under Oryctolagus cuniculus [3]; 19.5 mmHg in the series filed under Oryctolagus cuniculus [4]; 16.5 mmHg in the series filed under Oryctolagus cuniculus [5]; 20.17 mmHg in the series listed under Oryctolagus cuniculus [6]. Moreover, the IOP in the series filed under Oryctolagus cuniculus [7] is reported as 16.67 mmHg; in the series listed under Oryctolagus cuniculus [8] it was 15.83 mmHg; in the series listed under Oryctolagus cuniculus [9], 16.17 mmHg; in the series filed under Oryctolagus cuniculus [10], 25.5 mmHg. The same compound gave a solubility in the series “physchem” of 3.2 mM (≈ 942 µg/mL).
On Carbonic anhydrase, `COC(=O)CC(=O)Nc1nnc(S(N)(=O)=O)s1` gave a 50% inhibitory concentration (IC50) of 940 nM. Besides, the IOP in the series filed under Oryctolagus cuniculus [1] is on record as 16.17 mmHg; in the series listed under Oryctolagus cuniculus [2], 15.87 mmHg; in the series listed under Oryctolagus cuniculus [3], 23.17 mmHg; in the series listed under Oryctolagus cuniculus [4] it was 19.67 mmHg; in the series filed under Oryctolagus cuniculus [5], 17 mmHg; in the series listed under Oryctolagus cuniculus [6], 22.5 mmHg. In addition, the IOP in the series filed under Oryctolagus cuniculus [7] is 19.17 mmHg; in the series filed under Oryctolagus cuniculus [8], 16.33 mmHg; in the series filed under Oryctolagus cuniculus [9], 16.17 mmHg; in the series filed under Oryctolagus cuniculus [10], 27.17 mmHg. Besides, in “physchem”, the solubility was found to be 16 mM (≈ 4480 µg/mL).
Take `CCCCCOC(=O)CCC(=O)Nc1nnc(S(N)(=O)=O)s1`: on Carbonic anhydrase, the IC50 turned out to be 390 nM. In addition, the IOP is given as 15.83 mmHg in the series listed under Oryctolagus cuniculus [1]; 15 mmHg in the series filed under Oryctolagus cuniculus [2]; 22.67 mmHg in the series listed under Oryctolagus cuniculus [3]; 20 mmHg in the series filed under Oryctolagus cuniculus [4]; 17.83 mmHg in the series filed under Oryctolagus cuniculus [5]; 21.33 mmHg in the series filed under Oryctolagus cuniculus [6]. Further, the IOP in the series listed under Oryctolagus cuniculus [7] stood at 18.83 mmHg; in the series filed under Oryctolagus cuniculus [8], 15.67 mmHg; in the series listed under Oryctolagus cuniculus [9], 15.67 mmHg; in the series listed under Oryctolagus cuniculus [10], 24.5 mmHg. In “physchem”, this compound had a solubility of 1.3 mM (≈ 456 µg/mL).
On Carbonic anhydrase, `CCCCCOC(=O)CCC(=O)/N=c1/sc(S(N)(=O)=O)nn1C` registered an IC50 of 310 nM. The IOP in the series filed under Oryctolagus cuniculus [1] is 15.67 mmHg; in the series listed under Oryctolagus cuniculus [2] it was 15.5 mmHg; in the series filed under Oryctolagus cuniculus [3] it was 20.67 mmHg; in the series filed under Oryctolagus cuniculus [4], 25.17 mmHg; in the series listed under Oryctolagus cuniculus [5] it was 22 mmHg; in the series filed under Oryctolagus cuniculus [6], 20.67 mmHg. The IOP in the series listed under Oryctolagus cuniculus [7] is listed as 17.83 mmHg; in the series filed under Oryctolagus cuniculus [8] it was 15.83 mmHg; in the series listed under Oryctolagus cuniculus [9], 15.33 mmHg; in the series filed under Oryctolagus cuniculus [10] it was 24 mmHg. In addition, in “physchem”, the solubility is 1.4 mM (≈ 510 µg/mL).
In turn, `COC(=O)CCCCC(=O)Nc1nnc(S(N)(=O)=O)s1` registered an IC50 against Carbonic anhydrase of 230 nM. The solubility in the series “physchem” was less than 1 mM.
In the case of `NCCCCC(=O)Nc1nnc(S(N)(=O)=O)s1`, at Carbonic anhydrase, the IC50 stood at 440 nM. In addition, the IOP in the series filed under Oryctolagus cuniculus [1] is on record as 15.83 mmHg; in the series filed under Oryctolagus cuniculus [2], 15 mmHg; in the series listed under Oryctolagus cuniculus [3] it was 24 mmHg; in the series filed under Oryctolagus cuniculus [4], 20.83 mmHg; in the series filed under Oryctolagus cuniculus [5], 16.83 mmHg; in the series filed under Oryctolagus cuniculus [6], 21.5 mmHg. Also, the IOP in the series listed under Oryctolagus cuniculus [7] came to 17.33 mmHg; in the series listed under Oryctolagus cuniculus [8] it was 15.5 mmHg; in the series filed under Oryctolagus cuniculus [9], 15.83 mmHg; in the series filed under Oryctolagus cuniculus [10], 26.17 mmHg. For the same compound, the S in series [11] is reported as 8.8 mM.
On Carbonic anhydrase, `COC(=O)CCCCCCCC(=O)Nc1nnc(S(N)(=O)=O)s1` gave a concentration for half-maximal inhibition (IC50) of 910 nM. In addition, the solubility in the series “physchem” is less than 1 mM.
As for `NS(=O)(=O)c1nnc(NC(=O)CCCCC(=O)O)s1`, the IOP was determined as 16.83 mmHg in the series filed under Oryctolagus cuniculus [1]; 16.33 mmHg in the series filed under Oryctolagus cuniculus [2]; 20 mmHg in the series listed under Oryctolagus cuniculus [4]; 17.17 mmHg in the series filed under Oryctolagus cuniculus [5]; 21.67 mmHg in the series filed under Oryctolagus cuniculus [6]; 18 mmHg in the series listed under Oryctolagus cuniculus [7]. In addition, the IOP in the series filed under Oryctolagus cuniculus [8] was 16.33 mmHg; in the series listed under Oryctolagus cuniculus [9] it was 16.17 mmHg and 22 mmHg; in the series listed under Oryctolagus cuniculus [10], 25.17 mmHg. In addition, the solubility in “physchem” is 25 mM (≈ 7710 µg/mL).
In turn, `NS(=O)(=O)c1nnc(NC(=O)CCCCCCCC(=O)O)s1` gave an IC50 against Carbonic anhydrase of 480 nM. Besides, the IOP was 15.83 mmHg in the series listed under Oryctolagus cuniculus [1]; 16.17 mmHg in the series listed under Oryctolagus cuniculus [2]; 25.17 mmHg in the series listed under Oryctolagus cuniculus [3]; 19.5 mmHg in the series filed under Oryctolagus cuniculus [4]; 17 mmHg in the series filed under Oryctolagus cuniculus [5]; 20.67 mmHg in the series listed under Oryctolagus cuniculus [6]. The IOP in the series filed under Oryctolagus cuniculus [7] worked out at 17.5 mmHg; in the series filed under Oryctolagus cuniculus [8], 16 mmHg; in the series filed under Oryctolagus cuniculus [9], 16 mmHg; in the series listed under Oryctolagus cuniculus [10], 26.5 mmHg. This compound registered a solubility in the series “physchem” of 21.6 mM (≈ 7570 µg/mL).
The compound `COC(=O)CCCC(=O)Nc1nnc(S(N)(=O)=O)s1` gave an IC50 at Carbonic anhydrase of 910 nM. This compound gave a solubility in “physchem” of 11.5 mM (≈ 3550 µg/mL).
